Measured values published in patent publication US11179398B2, “Purine derivative for use in the treatment or prevention of diseases caused by a nonsense mutation” (MUSÉUM NATIONAL D'HISTOIRE NATURELLE, priority 2016, dated 2021).
“Also recorded” adds a separate entry of the source. Like-named read-outs stand apart in the source and are kept apart here. Marks after values point to notes of the source that are not given here.

Columns and labels:
[1] = tested on: luciferase gene carrying a UGA premature stop codon; experiment: Luciferase readthrough assay in transfected HeLa cells, UGA construct; type: cell-based, human; conditions: for correcting activity of nonsense mutations (luciferase activity): 25 μM, 24 hours; for concentration at which the molecule starts to significantly correct the nonsense mutation: dose-response 0.39 μM to 600 μM; for concentration of maximum correction effectiveness: luciferase activity
Source text: The DMSO represents the negative control.

[2] = tested on: Salmonella typhimurium TA100; conditions: positive control
Protocol: (§1) The positive controls used are:
(§2) The experiments were conducted once in triplicate.

[3] = tested on: Salmonella typhimurium TA1535; conditions: positive control
Protocol: as §1, §2

L5178Y TK+/- cells [4] = experiment: In vitro test of the micronuclei; conditions: for treated/solvent ratio: positive control
Protocol: (§5) The cells used are L5178Y TK^+/− cells obtained from ATCC (American Type Culture Collection, Manassas, USA) via Biovalley (Marne-la-Vallée, France) for the induction of micronuclei.
(§6) In the test with metabolic activation, the culture medium is supplemented with 5% of the S9 mixture, thus the final concentration of S9 in the treated medium is of 2%.
(§7) The cells were treated for 24 hours in the absence of the S9 mixture or treated for 3 hours followed by 24 hours of culture without treatment when the S9 mixture was present in the culture medium.
(§8) The experiment was conducted and 1000 single-nucleus cells were analysed per culture.
(§9) The assessment of the cytotoxicity was determined by measuring the doubling of the cell population at the end of the experiment.

[5] = tested on: gene TP53 carrying an UGA nonsense mutation at codon 196 (Calu-6 cells); experiment: Western blot of p53 re-expression in Calu-6 cells; type: cell-based
Protocol: (§3) For the purpose of validating the above screening results, the correction of nonsense mutations was measured for endogenous genes carrying nonsense mutations in an immortalised cell line of lung cancer Calu-6 (ATCC, USA) comprising a UGA mutation in the codon 196 of the gene TP53 (FIG. 2A), an immortalised cell line Caco-2 carrying a UAG mutation at the level of codon 204 (FIG. 2B) and an immortalised cell line Caov-3 carrying a UAA nonsense mutation at the level of codon 136 (FIG. 2C).
(§4) The proteins are extracted from the cell in a lysis buffer, then analysed by SDS-PAGE gel at 10% as previously described in Gonzalez-Hilarion et al. (2012). Briefly, after migration, the proteins are transferred onto a nitrocellulose membrane and placed in the presence of an anti-p53 antibody (D01; Santa-Cruz), and then of a secondary anti-mouse antibody (Jackson Immuno Research).

[6] = tested on: gene TP53 carrying an UAG mutation at codon 204 (Caco-2 cells); experiment: Western blot of p53 re-expression in Caco-2 cells; type: cell-based
Protocol: as §3, §4

[7] = tested on: gene TP53 carrying an UAA nonsense mutation at codon 136 (Caov-3 cells); experiment: Western blot of p53 re-expression in Caov-3 cells; type: cell-based
Protocol: as §3, §4

Calu-6 cells [8] = experiment: Phenotype of culture cells under white light microscope; type: cell-based
Calu-6 cells [9] = experiment: Cellular growth and apoptosis measurement; type: cell-based
Protocol: Briefly, the cells are removed from their support using typisin and centrifuged for 5 minutes at 200 g.

[10] = tested on: NMD (mRNA p53 in Calu-6 cells); experiment: NMD inhibition: RT-PCR of p53 mRNA carrying a UGA nonsense mutation; type: cell-based; conditions: 6.25 μM, 25 μM, 24 hours
Source text: The RNAs were purified with RNazol (MRC) and underwent a RT-PCR as described in Gonzalez-Hilarion et al. (2012). The resulting cDNA were then amplified after 35 cycles of PCR using the p53 sense primer (5′-[…]-3′; SEQ ID NO: 1), antisense p53 (5′-[…]-3′; SEQ ID NO: 2), sense GAPDH (5′-[…]-3′; SEQ ID NO: 3), antisense GAPDH (5′-[…]-3′; SEQ ID NO: 4).

[11] = tested on: p53 target genes p21 and Noxa in Calu-6 cells; experiment: Expression of p53 target genes p21 and Noxa by RT-PCR; type: cell-based; conditions: 20 hours
Source text: The RNAs were purified with RNazol (MRC) and underwent a RT-PCR as described in Gonzalez-Hilarion et al. (2012). The resulting cDNA were then amplified after 35 cycles of PCR using the p21 mRNA primers (sense: 5′-[…]-3′; SEQ ID NO: 5; antisense 5′-[…]-3′; SEQ ID NO: 6); GADD45 mRNA (sense: 5′-[…]-3′; SEQ ID NO: 7; antisense 5′-[…]-3′; SEQ ID NO: 8); NOXA mRNA (sense: 5′-[…]-3′; SEQ ID NO: 9; antisense 5′-[…]-3′; SEQ ID NO: 10).

[12] = tested on: luciferase gene carrying a premature UGA stop codon; experiment: Synergy with clitocin, luciferase UGA readthrough assay in HeLa cells; type: cell-based, human; conditions: DAP alone at 25 μM
Protocol: The luciferase activity is measured by adding the SteadyLite plus substrate (Perkin Elmer) to the culture medium and the plates are read with a Tristar luminometer (Berthold). The plate is read twice.

L5178Y TK+/- cells [13] = conditions: mouse
Protocol: as §5, §6, §7, §8, §9

[14] = tested on: luciferase gene carrying a UAA premature stop codon; experiment: Luciferase readthrough assay in transfected HeLa cells, UAA construct; conditions: 25 μM
Source text: (§10) The position of the premature stop codon is such that if the protein synthesis stops at the premature stop codon, the synthesised truncated luciferase protein is not functional.

[15] = tested on: luciferase gene carrying a UAG premature stop codon; experiment: Luciferase readthrough assay in transfected HeLa cells, UAG construct; conditions: 25 μM
Source text: as §10

[16] = tested on: Salmonella typhimurium TA102; conditions: positive control, TA102, with S9, 5.00 μg/well
Protocol: as §1, §2

[17] = tested on: Salmonella typhimurium TA98; experiment: Compensatory mutation test on bacteria, TA98; conditions: positive control, TA98, with S9, 1.00 μg/well
Protocol: (§11) The test was conducted in the absence or presence of a metabolic solution called S9 mixture (S9 mixture of rat liver treated with aroclor. The concentration of the S9 fraction in the S9 mixture is of 10%).
(§12) The solvent used is dimethyl sulfoxide (DMSO), the volume containing the molecule to be tested or DMSO alone is of 25 μl per well.
(§13) For the tests conducted in the presence of the S9 mixture, 2-anthranine at 1 μg/well for the TA98, TA100 and TA1535 strains or of 5 μg/well for the TA102 or TA1537 strains.
(§14) The treatment in the absence of presence of the S9 mixture was conducted by adding it directly in the wells.

[18] = tested on: Salmonella typhimurium TA1537; experiment: Compensatory mutation test on bacteria, TA1537; conditions: positive control, TA1537, with S9, 5.0 μg/well
Protocol: as §11, §12, §13, §14

[19] = TA1535, without S9, 0.5 μg/well

In the case of `Sc1ncnc2nc[nH]c12` [6-mercaptopurine], the “correcting activity of nonsense mutations (luciferase activity)” value (“correcting activity” below) ([1]; HeLa cells) is reported as “do not have a correcting activity; also recorded: no correction activity”.

For `[N-]=[N+]=[N-]` [NaN3, sodium azide], the “average number of revertants per well” value ([2]; TA100, without S9, 1.0 μg/well) was 232.3, the treated/solvent ratio ([2]; TA100, without S9, 1.0 μg/well) was 5.5 and the “average number of revertants per well” value [3, 19] was 206.7. It also gave a treated/solvent ratio [3, 19] of 77.5.

`Sc1ncc2[nH]cnc2n1` [2-mercaptopurine] was tested, and the “correcting activity” value ([1]; HeLa cells) was “do not have a correcting activity; also recorded: no correction activity”.

With `O=P1(N(CCCl)CCCl)NCCCO1` (stereo not drawn) [CPA, cyclophosphamide, reference compound] the treated/solvent ratio (L5178Y TK+/- cells [4]; with S9 mix, 6 μg/mL) was 60.0 **.

With `Nc1nc(N)c2nc[nH]c2n1` [DAP, 2,6-diaminopurine] the “correcting activity” value ([1]; HeLa cells) was “able to correct the UGA stop codons much more effectively than G418 or ataluren”, the “correction of the nonsense UGA mutation (luciferase activity) compared with G418 at 25 μM” value ([1]; DAP at 25 μM, HeLa cells) was “eighteen times more effective” and the “correction of the nonsense UGA mutation (luciferase activity) compared with G418 at 2400 μM” value ([1]; DAP at 25 μM, HeLa cells) was “more than three times more effective”. The EC50 ([1]; Homo sapiens, HeLa) was 54 µM, the “correction of the UGA nonsense mutation compared with G418” value ([1]; both at 6.25 μM) was “five times higher” and the “concentration at which the molecule starts to significantly correct the nonsense mutation” value [1] was 6.25 µM. The “concentration of maximum correction effectiveness” value ([1]; HeLa cells) was 100 µM, the “synthesis of readthrough protein” value ([5]; 25 μM of DAP versus G418 600 μM) was “greater than with G418” and the “minimal concentration at which wild-size protein p53 (p53 FL) is detected” value ([5]; Calu-6 cells, 20 hours, Western blot) was 6.25 µM. For the same molecule, the “concentration of maximum production of p53 FL” value ([5]; Calu-6 cells, Western blot) was 25 µM, the “re-expression of protein p53” value [6] was “does not make it possible to re-express the protein” and the “re-expression of protein p53” value [7] was “does not make it possible to re-express the protein p53”. For the same molecule, the “concentration from which more dying cells (round appearance) are observed” value (Calu-6 cells [8]) was at least 600 µM, the “percentage of apoptotic cells” value (Calu-6 cells [9]; DAP 6.25 μM or 25 μM, D4 to D10) was at most 15% and the “inhibition of NMD (stabilising an mRNA carrying a premature stop codon)” value [10] was “not an NMD inhibitor”. The “concentration from which the expression of the target genes of p53 increases” value [11] was at least 6.25 µM, the luminescence measured [12] was 50,000 and the “DP (% of the control substance)” value (L5178Y TK+/- cells [13]; 3 h, 0.01 nM) was 76 % of the control substance. The “DP (% of the control substance)” value (L5178Y TK+/- cells [13]; 3 h, 0.02 nM) was 89 % of the control substance, the “DP (% of the control substance)” value (L5178Y TK+/- cells [13]; 3 h, 0.04 nM) was 91 % of the control substance and the “DP (% of the control substance)” value (L5178Y TK+/- cells [13]; 3 h, 0.07 nM) was 74 % of the control substance. For the same molecule, the “DP (% of the control substance)” value (L5178Y TK+/- cells [13]; 3 h, 0.29 nM) was 73 % of the control substance, the “DP (% of the control substance)” value (L5178Y TK+/- cells [13]; 3 h, 0.58 nM) was 54 % of the control substance and the “DP (% of the control substance)” value (L5178Y TK+/- cells [13]; 3 h, 2.33 nM) was 44 % of the control substance. For the same molecule, the “DP (% of the control substance)” value (L5178Y TK+/- cells [13]; 3 h, 4.66 nM) was 40 % of the control substance, the “reduction of the doubling of the population” value (L5178Y TK+/- cells [13]; 24 h) was 79-100% and the “DP (% of the control substance)” value (L5178Y TK+/- cells [13]; 24 h, 0.01 nM) was 91 % of the control substance. The “DP (% of the control substance)” value (L5178Y TK+/- cells [13]; 24 h, 0.02 nM) was 121 % of the control substance, the “DP (% of the control substance)” value (L5178Y TK+/- cells [13]; 24 h, 0.04 nM) was 78 % of the control substance and the “DP (% of the control substance)” value (L5178Y TK+/- cells [13]; 24 h, 0.07 nM) was 97 % of the control substance. The “doses with severe cytotoxicity” value (L5178Y TK+/- cells [4]; in the absence of the S9 mixture, 24 hours) was “greater than 0.15 mM”, the “doses with slight cytotoxicity” value (L5178Y TK+/- cells [4]; in the presence of the S9 mixture, 3 hours + 24 hours) was “greater than 0.07 mM” and the “genotoxic effect (frequency of cells containing micronuclei)” value (L5178Y TK+/- cells [4]; in the presence or absence of the S9 mixture, listed as 2,6-DAP) was “no genotoxic effect; also recorded: does not induce any damage to the chromosomes or cell machinery involved in the cell division”. For the same molecule, the “effect on the UAA codon (luciferase activity)” value [14] was “no effect” and the “effect on the UAG codon (luciferase activity)” value [15] was “no effect”.

With `CO[C@@]12[C@H](COC(N)=O)C3=C(C(=O)C(C)=C(N)C3=O)N1C[C@@H]1N[C@@H]12` [MMC, mitomycin C, reference compound] the treated/solvent ratio (L5178Y TK+/- cells [4]; without S9 mix) was 100.0 **.

For `Nc1ccc2cc3ccccc3cc2c1` [2AM, 2-anthramine], the “average number of revertants per well” value ([2]; TA100, with S9, 1.0 μg/well) was 696.0, the treated/solvent ratio ([2]; TA100, with S9, 1.0 μg/well) was 17.4 and the “average number of revertants per well” value [16] was 91.0. For the same molecule, the treated/solvent ratio [16] was 2.0, the “average number of revertants per well” value ([3]; TA1535, with S9, 1.0 μg/well) was 137.7 and the treated/solvent ratio ([3]; TA1535, with S9, 1.0 μg/well) was 41.3. The “average number of revertants per well” value [17] was 686.7, the treated/solvent ratio [17] was 98.1 and the “average number of revertants per well” value [18] was 36.0. The treated/solvent ratio [18] was 13.5.

With `O=C(O)c1cccc(-c2noc(-c3ccccc3F)n2)c1` [ataluren] the “correcting activity” value ([1]; HeLa cells) was “ineffective; also recorded: no correction activity”.

With `CN[C@@H]1[C@@H](O)[C@@H](O[C@@H]2[C@@H](O)[C@H](O[C@H]3O[C@H]([C@@H](C)O)[C@@H](O)[C@H](O)[C@H]3N)[C@@H](N)C[C@H]2N)OC[C@]1(C)O` [G418] the “concentration at which the molecule starts to significantly correct the nonsense mutation” value [1] was 6.25 µM, the “concentration of maximum correction effectiveness” value ([1]; HeLa cells) was over 600 µM and the “percentage of apoptotic cells” value (Calu-6 cells [9]; G418 600 μM, from the 4th day of culture) was over 30%.
